According to PMC10970644, “Molecular Pharmacology of Gelsemium Alkaloids on Inhibitory Receptors” (International Journal of Molecular Sciences, 2024):

Legend:
Spinal GlyRs = conditions: cited from earlier work
α1 GlyR = biological target: T1, α1 GlyR (Rattus norvegicus, UniProt P07727); conditions: homomeric α1GlyRs; cited from earlier work
T1 construct: expressed in transfected cells; host or cells: HEK293 (ATCC CRL-1573)
T1 sequence (P07727 29-457): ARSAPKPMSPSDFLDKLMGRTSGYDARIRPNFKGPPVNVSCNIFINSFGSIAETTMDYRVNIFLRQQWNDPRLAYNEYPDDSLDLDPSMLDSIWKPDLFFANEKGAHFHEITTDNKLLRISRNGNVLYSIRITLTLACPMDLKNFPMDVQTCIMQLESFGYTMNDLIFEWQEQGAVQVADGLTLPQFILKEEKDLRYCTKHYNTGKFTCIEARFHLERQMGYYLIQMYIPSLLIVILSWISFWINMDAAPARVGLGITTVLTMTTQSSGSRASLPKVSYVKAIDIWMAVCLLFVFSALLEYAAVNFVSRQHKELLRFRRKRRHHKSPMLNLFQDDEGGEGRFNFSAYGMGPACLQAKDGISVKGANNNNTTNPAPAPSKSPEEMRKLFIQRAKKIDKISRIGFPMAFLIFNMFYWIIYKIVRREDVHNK

α2 GlyR = biological target: T2, α2 GlyR (Rattus norvegicus, UniProt P22771); conditions: cited from earlier work
T2 construct: The cells were transfected with plasmids encoding the following proteins; expressed in transfected cells; host or cells: HEK293 (ATCC CRL-1573)
T2 sequence (P22771 28-452): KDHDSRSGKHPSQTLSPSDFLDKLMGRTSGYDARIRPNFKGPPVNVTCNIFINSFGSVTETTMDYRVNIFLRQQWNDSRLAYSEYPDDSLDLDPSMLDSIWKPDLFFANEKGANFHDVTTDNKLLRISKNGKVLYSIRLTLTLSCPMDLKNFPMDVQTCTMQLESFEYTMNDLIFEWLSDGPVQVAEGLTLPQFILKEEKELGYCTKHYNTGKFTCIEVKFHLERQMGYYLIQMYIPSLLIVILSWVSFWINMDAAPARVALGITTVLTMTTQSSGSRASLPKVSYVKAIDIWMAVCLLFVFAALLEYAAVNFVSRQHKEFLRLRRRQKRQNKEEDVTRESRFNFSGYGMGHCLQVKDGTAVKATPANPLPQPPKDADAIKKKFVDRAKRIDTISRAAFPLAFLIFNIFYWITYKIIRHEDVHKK

native GlyRs = conditions: cited from earlier work
α1β GlyR = biological target: T3, α1β GlyR (Rattus norvegicus, UniProt P07727+P20781); test: cell-based
T3 construct: The cells were transfected with plasmids encoding the following proteins; expressed in transfected cells; host or cells: HEK293 (ATCC CRL-1573)
Experimental: The cells were transfected with plasmids encoding the following proteins: (i). rat GlyR α (1, 2, 3) subunits alone or combined with rat β subunits (Uniprot Accession Numbers: Q546L7, P22771, P20236, P20781); and (ii). rat GABAAR α1 combined with rat β2 and γ2 subunits (Uniprot Accession Numbers: P62813, P63138, P18508). The EGFP expression was used as a marker of successful protein expression. The transfection was performed using Lipofectamine 2000 (Invitrogen, ThermoFisher, Carlsbad, CA, USA) using the fabricant protocol. The plasmids used to express GlyRs and GABAARs have been previously described. To track the successful expression of GlyR β subunits and the GABAA γ2 or β2 subunit, these proteins were subcloned in the pIRES2-EGFP vector. The transfection ratio to obtain β-containing GlyRs was 1:5 of α:β, while the expression of γ2-containing GABAA receptors was 1:2:5 of α:β:γ2 [14, 15]. Chimeric GlyRs were described in a previous report. Site directed mutagenesis was performed by Charm Gene Science Mutagenex LLC. (Cumming, GA, USA). All the constructs were checked by full-length sequencing (SNPSaurus, Eugene, OR, USA).
In brief, patch electrodes (3–4 MΩ) were pulled from borosilicate glasses in a PC-100 puller (Narishige, Tokyo, Japan); then, they were filled with an intracellular solution, which contained (in mM) 120 CsCl, 8 EGTA, 10 HEPES (pH 7.4), 4 MgCl2, 0.5 GTP, and 2 ATP. The extracellular solution contained (in mM) 140 NaCl, 5.4 KCl, 2.0 CaCl2, 1.0 MgCl2, 10 HEPES (pH 7.4), and 10 glucose. Whole-cell patch-clamp recordings were performed at −60 mV with an Axoclamp 200B (Molecular Devices, Sunnyvale, CA, USA) or with HEKA EPC-10 (HEKA Elektronik GmbH, Reutlingen, Germany) amplifiers. […] Brief (3–5 s) pulses of agonist together with alkaloids were applied to cells. Stock solutions of the alkaloids were prepared in high purity distilled water. Aliquots of these stock solutions were diluted in reservoirs containing extracellular solution. […] The concentration–response curve parameters for the alkaloid inhibition (IC50, nH, and the maximal current inhibition) were obtained from the fitted curve of normalized concentration–response data points to the equation Iagonist = Imax (agonist)nH/((agonist)nH + (EC50)nH). The IC50 curves are best-fit mean ± SE from pooled data. […] The inhibition constant (Ki) was calculated using the Cheng–Prusoff equation (Ki = IC50/((2 + ([Agonist]/EC50)^nH)^1/nH − 1). The concentration of agonist corresponds to the sub-saturating agonist concentration used to obtain the IC50 for each alkaloid on a given GlyR subtype.

T3 sequence (P20781 23-496, one chain of several): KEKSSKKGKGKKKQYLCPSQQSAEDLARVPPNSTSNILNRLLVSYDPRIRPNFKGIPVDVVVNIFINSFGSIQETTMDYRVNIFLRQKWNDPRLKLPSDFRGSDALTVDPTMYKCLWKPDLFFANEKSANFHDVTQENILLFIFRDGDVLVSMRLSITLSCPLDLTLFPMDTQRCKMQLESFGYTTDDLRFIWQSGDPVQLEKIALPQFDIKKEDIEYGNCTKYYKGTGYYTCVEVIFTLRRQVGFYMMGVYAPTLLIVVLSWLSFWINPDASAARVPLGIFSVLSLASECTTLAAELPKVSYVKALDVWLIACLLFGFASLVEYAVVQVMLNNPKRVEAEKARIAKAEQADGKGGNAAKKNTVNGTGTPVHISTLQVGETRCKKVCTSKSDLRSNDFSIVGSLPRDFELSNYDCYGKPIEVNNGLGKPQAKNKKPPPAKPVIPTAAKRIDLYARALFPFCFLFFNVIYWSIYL

Structure (SMILES) | IC50 (Spinal GlyRs) [µM] | modulation of currents (in words) (α1 GlyR) | modulation of currents (in words) (α2 GlyR) | IC50 (native GlyRs) [µM] | IC50 (α1β GlyR) [µM] | nH (α1β GlyR; Hill coefficient of inhibition curve) | Maximal Modulation (α1β GlyR; percentage change of glycine-evoked current) [%]
C=C[C@]12CN(C)[C@@H]3[C@H]4CO[C@H](C[C@H]41)[C@]1(C(=O)Nc4ccccc41)[C@@H]32 [gelsemine] | ~42 | bell-shape modulation | concentration-dependent inhibition | ~40 |  |  | 
C=C[C@@]12CN(C)[C@H]3C[C@]14C(=Nc1ccccc14)[C@H]1C[C@@H]2[C@@H]3CO1 [koumine] |  |  |  |  | 32.5 ± 13.2 | 0.9 ± 0.5 | −90.8 ± 2.3
